In PubChem BioAssay (NCI):
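Protocol summary: plate cells (96-well), add compound at 5 concentrations, incubate 48 h, interpolate endpoints linearly. GI50 marks 50% less growth. TGI denotes the concentration required for complete inhibition of growth.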

Experiments:
Experiment in all cases: NCI anticancer screen, dose series, 48 h; in the data active means GI50 below about 0.43 µM; inactive means the rest
[1] = test system: 786-0 renal
[2] = test system: A549 NSCLC
[3] = test system: CAKI-1 renal
[4] = test system: COLO 205 colon
[5] = test system: DLD-1 colon
[6] = test system: DMS 273 small cell lung
[7] = test system: EKVX NSCLC
[8] = test system: HCC-2998 colon
[9] = test system: HCT-116 colon
[10] = test system: HCT-15 colon
[11] = test system: HOP-18 NSCLC
[12] = test system: IGROV1 ovarian
[13] = test system: KM12 colon
[14] = test system: KM20L2 colon
[15] = test system: LOX IMVI melanoma
[16] = test system: LXFL 529 NSCLC
[17] = test system: M14 melanoma
[18] = test system: MALME-3M melanoma
[19] = test system: NCI-H226 lung
[20] = test system: NCI-H23 lung
[21] = test system: NCI-H460 lung
[22] = test system: NCI-H522 lung
[23] = test system: OVCAR-3 ovarian
[24] = test system: OVCAR-4 ovarian
[25] = test system: OVCAR-5 ovarian
[26] = test system: OVCAR-8 ovarian
[27] = test system: RPMI-8226 leukemia
[28] = test system: RXF 393 renal
[29] = test system: SF-268 CNS
[30] = test system: SF-295 CNS
[31] = test system: SF-539 CNS
[32] = test system: SK-MEL-2 melanoma
[33] = test system: SK-MEL-28 melanoma
[34] = test system: SK-MEL-5 melanoma
[35] = test system: SN12C renal
[36] = test system: SNB-19 CNS
[37] = test system: SNB-75 CNS
[38] = test system: SNB-78 CNS
[39] = test system: SR leukemia
[40] = test system: SW-620 colon
[41] = test system: TK-10 renal
[42] = test system: U251 CNS
[43] = test system: UACC-62 melanoma
[44] = test system: UO-31 renal
[45] = test system: ACHN renal
[46] = test system: HL-60(TB) leukemia
[47] = test system: HOP-92 NSCLC
[48] = test system: HT29 colon
[49] = test system: M19-MEL melanoma
[50] = test system: UACC-257 melanoma

N.N.N.N.N.N#N.[Cl-].[Os+7]
inactive: GI50 [1] > 100 µM | GI50 [2] > 100 µM | GI50 [3] > 100 µM | GI50 [4] > 100 µM | GI50 [5] > 100 µM | GI50 [6] > 100 µM | GI50 [7] > 100 µM | GI50 [8] > 100 µM | GI50 [9] > 100 µM | GI50 [10] > 100 µM | GI50 [11] > 100 µM | GI50 [12] > 100 µM | GI50 [13] > 100 µM | GI50 [14] > 100 µM | GI50 [15] > 100 µM | GI50 [16] > 100 µM | GI50 [17] > 100 µM | GI50 [18] > 100 µM | GI50 [19] > 100 µM | GI50 [20] > 100 µM | GI50 [21] > 100 µM | GI50 [22] > 100 µM | GI50 [23] > 100 µM | GI50 [24] > 100 µM | GI50 [25] > 100 µM | GI50 [26] > 100 µM | GI50 [27] > 100 µM | GI50 [28] > 100 µM | GI50 [29] > 100 µM | GI50 [30] > 100 µM | GI50 [31] > 100 µM | GI50 [32] > 100 µM | GI50 [33] > 100 µM | GI50 [34] > 100 µM | GI50 [35] > 100 µM | GI50 [36] > 100 µM | GI50 [37] > 100 µM | GI50 [38] > 100 µM | GI50 [39] > 100 µM | GI50 [40] > 100 µM | GI50 [41] > 100 µM | GI50 [42] > 100 µM | GI50 [43] > 100 µM | GI50 [44] > 100 µM
> 100 µM: TGI [1] | TGI [2] | TGI [3] | TGI [4] | TGI [5] | TGI [6] | TGI [7] | TGI [8] | TGI [9] | TGI [10] | TGI [11] | TGI [12] | TGI [13] | TGI [14] | TGI [15] | TGI [16] | TGI [17] | TGI [18] | TGI [19] | TGI [20] | TGI [21] | TGI [22] | TGI [23] | TGI [24] | TGI [25] | TGI [26] | TGI [27] | TGI [28] | TGI [29] | TGI [30] | TGI [31] | TGI [32] | TGI [33] | TGI [34] | TGI [35] | TGI [36] | TGI [37] | TGI [38] | TGI [39] | TGI [40] | TGI [41] | TGI [42] | TGI [43] | TGI [44]

CC1C(/C=C/c2ccoc2)ON2CCCC12 (configuration not stated)
> 100 µM: TGI [1] | TGI [45] | TGI [3] | TGI [4] | TGI [5] | TGI [6] | TGI [7] | TGI [8] | TGI [46] | TGI [11] | TGI [47] | TGI [48] | TGI [14] | TGI [15] | TGI [16] | TGI [49] | TGI [18] | TGI [19] | TGI [20] | TGI [21] | TGI [22] | TGI [24] | TGI [25] | TGI [26] | TGI [28] | TGI [29] | TGI [30] | TGI [31] | TGI [32] | TGI [33] | TGI [35] | TGI [36] | TGI [37] | TGI [38] | TGI [40] | TGI [41] | TGI [42] | TGI [50] | TGI [44]
